Assay results: patent US5539125A, “1-azabicyclo[3.3.0]octan derivative, salt thereof, process for the preparation of same and use thereof as hypermotility agents” (Sanwa Kagaku Kenkyusho Co., Ltd., priority 1994, dated 1996)
Where a name gives a salt, the structure may show the parent alone.

system: dopamine D2 receptor; assay: not given; details: rat, in vivo, po, 100 mg/kg
From the text: The compounds (salts) obtained by Examples as well as known compound (Metoclopramide) were selected as Test and Control Compounds, respectively. The compound was orally administered to rats to observe for 2 days general symptoms including catalepsy and blepharoptosis due to antagonistic action of the compound to dopamine D2 receptor.

Structure (SMILES)	influence to central nerve system due to anti-dopamine action
CCN(CC)CCNC(=O)c1cc(Cl)c(N)cc1OC [Metoclopramide, 4-amino-5-chloro-N-[(2-diethylamino)ethyl]-2-methoxybenzamide]	somewhat remarkable influence was recognized

biological target: T1, 5-HT4 receptor (Rattus norvegicus, UniProt Q62758); assay: Agonisting Action to 5-HT4 Receptor: relaxation of carbachol-contracted muscular sample of mucous membrane in rat esophagus; details: negative logarithm of concentration causing 50% relaxation
T1 construct: muscular sample of mucous membrane in esophgus exentrated from a rat; from tissue; host or cells: rat oesophagus, muscularis mucosae (isolated tissue contracted with carbachol)
T1 sequence (Q62758 whole entry): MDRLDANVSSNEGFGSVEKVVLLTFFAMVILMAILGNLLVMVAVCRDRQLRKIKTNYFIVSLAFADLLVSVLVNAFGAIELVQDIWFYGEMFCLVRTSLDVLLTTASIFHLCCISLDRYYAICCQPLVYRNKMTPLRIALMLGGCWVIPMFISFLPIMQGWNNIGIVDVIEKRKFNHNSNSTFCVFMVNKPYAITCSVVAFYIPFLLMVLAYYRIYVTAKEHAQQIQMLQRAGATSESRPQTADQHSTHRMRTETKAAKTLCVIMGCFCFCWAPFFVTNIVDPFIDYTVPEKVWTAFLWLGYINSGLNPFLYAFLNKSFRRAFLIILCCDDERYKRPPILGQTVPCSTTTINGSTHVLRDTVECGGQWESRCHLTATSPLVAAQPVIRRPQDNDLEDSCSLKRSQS
From the text: Pharmacol.", Vol. 343, page 439 (1991)].
Namely, a relaxation of the Test and Control compounds in various concentration showing to carbachol contradiction of a muscular sample of mucous membrane in esophgus exentrated from a rat was checked to calculate a concentration causing 50% relaxation and compared with its negative logarithm (P EC50).

Structure (SMILES)	pEC50	EC50 [µM]
C=CCc1c(N)c(Cl)cc(C(=O)NCCC23CCCN2CCC3)c1OCC [Example 9, 4-Amino-N-[2-(1-azabicyclo[3.3.0]octan-5-yl)ethyl]-5-chloro-2-ethoxy-3-(2-propenyl)benzamide. 1/2 fumarate]	6.3	–
Cc1cc2c(N)c(Cl)cc(C(=O)NCCC34CCCN3CCC4)c2o1 [Example 4, 4-Amino-N-[2-(1-azabicyclo[3.3.0]octan-5-yl)ethyl]-5-chloro-2-methylbenzo[b]furan-7-carboxamide. 1/2 fumarate]	–	0.0398
COc1c(C(=O)NCCC23CCCN2CCC3)cc(Cl)c2c1CCN2 [Example 1, N-[2-(1-Azabicyclo[3.3.01]octan-5-yl)ethyl]-7-chloro-2,3-dihydro-4-methoxyindole-5-carboxamide. 1/2 fumarate]	–	5.01
CCOc1c(C(=O)NCCC23CCCN2CCC3)cc(Cl)c2c1CCN2 [Example 2, N-[2-(1-Azabicyclo[3.3.0]octan-5-yl)ethyl]-7-chloro-2,3-dihydro-4-ethoxyindole-5-carboxamide. 1/2 fumarate]	–	5.01
Cc1oc2c(C(=O)NCCC34CCCN3CCC4)ccc(N)c2c1Cl [Example 3, 4-Amino-N-[2-(1-Azabicyclo[3.3.0]octan-5-yl)ethyl]-3-chloro-2-methylbenzo[b]furan-7-carboxamide.1/2 fumarate]	–	2
Cc1oc2c(C(=O)NCCC34CCCN3CCC4)cc(Cl)c(N)c2c1Cl [Example 5, 4-Amino-N-[2-(1-azabicyclo[3.3.0]octan-5yl)ethyl]-3,5-dichloro-2-methylbenzo[b]furan-7-carboxamide. 1/2 fumarate]	–	0.794
CCCc1c(N)c(Cl)cc(C(=O)NCCC23CCCN2CCC3)c1OC [Example 6, 4-Amino-N-[2-(1-azabicyclo[3.3.0]octan-5-yl)ethyl]-5-chloro-2-methoxy-3-propylbenzamide. 1/2 fumarate]	–	0.501
C=CCc1c(N)c(Cl)cc(C(=O)NCCC23CCCN2CCC3)c1OC [Example 8, 4-Amino-N-[2-(1-azabicyclo[3.3.0]octan-5-yl)ethyl]-5-chloro-2-methoxy-3-(2-propenyl)benzamide. 1/2 fumarate]	6.3	–
CCCc1c(N)c(Cl)cc(C(=O)NCCC23CCCN2CCC3)c1OCC [Example 7, 4-Amino-N-[2-(1-azabicyclo[3.3.0]octan-5-yl)ethyl]-5-chloro-2-ethoxy-3-propylbenzamide. 1/2 fumarate]	–	0.398
